Data on 69 compounds can be found in PubChem BioAssay AID977614 (Broad Institute, 2014).

The AC50 is the concentration giving half of the maximal activity seen.

Calls of active or inactive are those of the source.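 Rule for the calls: active = parasite count per well reduced by over 3 SD from the mean, with host cell number above 80% of untreated; inactive = the rest.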

This assay has as its system L. donovani amastigotes in THP-1 macrophages, DAPI imaging, 72 h. Put plainly: L. donovani intracellular amastigote growth inhibitors, imaging, THP-1 host macrophages, single concentration (AID 977614).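 Note: signal is the parasite per host cell ratio from DAPI stained kinetoplasts and nuclei.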
As to `C[C@@H]1CN([C@@H](C)CO)C(=O)CCCn2nncc2CO[C@@H]1CN(C)C(=O)Nc1ccnc(N2CCOCC2)c1`, the AC50 was > 10 µM (inactive). `C[C@H](CO)N1C[C@H](C)[C@H](CN(C)S(=O)(=O)c2cccc(C#N)c2)OCc2cn(nn2)CCCC1=O`: the AC50 was > 10 µM (inactive).

On to `CN(C[C@H]1[C@H](c2ccccc2)[C@H](CO)N1Cc1ccccn1)S(C)(=O)=O`, for which the AC50 was > 10 µM (inactive). The figure for `CCN(C[C@H]1[C@H](c2ccccc2)[C@@H](CO)N1C(=O)COC)S(C)(=O)=O` is > 10 µM (inactive); for `Cc1noc(C)c1NC(=O)N(C)C[C@@H]1OCc2cnnn2CCCC(=O)N([C@H](C)CO)C[C@@H]1C` it is > 10 µM (inactive). Regarding `CCCNC(=O)N(C)C[C@@H]1[C@@H](c2ccccc2)[C@H](CO)N1C(=O)c1ccccc1`, the AC50 was > 10 µM (inactive). With `C[C@H]1CN([C@@H](C)CO)C(=O)CCCn2nncc2CO[C@H]1CN(C)C(=O)c1cc(-c2ccccc2)on1`, the AC50 was > 10 µM (inactive). For `C[C@H]1CN([C@@H](C)CO)C(=O)CCCn2cc(nn2)CO[C@H]1CN(C)C(=O)Oc1ccc2ccccc2c1`, the AC50 is > 10 µM (inactive). `CN1C[C@H]2[C@@H](c3ccccc31)[C@@H](CO)N2Cc1ccccc1Cl`: the AC50 is > 10 µM (inactive).

As to `CCCC(=O)N1C[C@@H]2[C@H](c3ccccc31)[C@H](CO)N2Cc1cocn1`, the AC50 is > 10 µM (inactive). For `CN1[C@H](CO)[C@@H]2c3ccccc3N(C(=O)Nc3cc(F)ccc3F)C[C@@H]21`, the AC50 was > 10 µM (inactive). Regarding `CN1[C@H](CO)[C@H]2c3ccccc3N(C(=O)Nc3cc(F)ccc3F)C[C@H]21`, the AC50 was > 10 µM (inactive). As for `C[C@H](CO)N1C[C@H](C)[C@H](CN(C)C(=O)Nc2cccc(Oc3ccccn3)c2)OCc2cnnn2CCCC1=O`, the AC50 was > 10 µM (inactive). `O=S(=O)(NC[C@@H]1[C@@H](c2ccccc2)[C@H](CO)N1CC1CC1)c1ccccc1`: the AC50 was > 10 µM (inactive).

For the compound `COc1ccc(CN(C)C[C@@H]2OCc3cnnn3CCCC(=O)N([C@H](C)CO)C[C@H]2C)cc1`, the AC50 was > 10 µM (inactive). Then `CCC(=O)N1[C@H](CO)[C@@H](c2ccccc2)[C@@H]1CN(CC)C(=O)c1cccc(F)c1`, with > 10 µM (inactive); and `C[C@H](CO)N1C[C@H](C)[C@@H](CN(C)S(=O)(=O)c2cn(C)cn2)OCc2cnnn2CCCC1=O`, with > 10 µM (inactive); and `C[C@@H]1CN([C@H](C)CO)C(=O)CCCn2cc(nn2)CO[C@H]1CN(C)S(=O)(=O)c1ccc(-n2cccn2)cc1`, with > 10 µM (inactive). For `C[C@@H]1CN([C@H](C)CO)C(=O)CCCn2nncc2CO[C@H]1CN(C)C(=O)Nc1ccc2c(c1)OCCO2`, the AC50 is > 10 µM (inactive). On to `C[C@H]1CN([C@@H](C)CO)C(=O)CCCn2nncc2CO[C@@H]1CN(C)S(=O)(=O)c1ccc(Oc2ccccc2)nc1`, for which the AC50 was > 10 µM (inactive). Then `O=C(C1CCCCC1)N1[C@H](CO)[C@@H]2c3ccccc3N(S(=O)(=O)c3ccccc3)C[C@@H]21`, with > 10 µM (inactive); and `C[C@@H]1CN([C@H](C)CO)C(=O)CCCn2nncc2CO[C@@H]1CN(C)C(=O)Oc1cccc2ccccc12`, with > 10 µM (inactive). Consider `COc1ccccc1NC(=O)N1C[C@@H]2[C@H](c3ccccc31)[C@H](CO)N2C(=O)C1CCCC1`, for which the AC50 was > 10 µM (inactive).

As to `COc1ccc(C(=O)N2C[C@H]3[C@@H](c4ccccc42)[C@H](CO)N3C(=O)Cc2ccccn2)cc1`, the AC50 was > 10 µM (inactive). Then `O=C(Cc1cccnc1)N1[C@@H](CO)[C@H](c2ccccc2)[C@@H]1CNCC1CCC1`, with > 10 µM (inactive).

With `C[C@H](CO)N1C[C@H](C)[C@@H](CN(C)C(=O)Nc2ccc(-c3cccs3)cc2)OCc2cnnn2CCCC1=O`, the AC50 is > 10 µM (inactive). The figure for `C[C@@H]1CN([C@@H](C)CO)C(=O)CCCn2cc(nn2)CO[C@@H]1CN(C)S(=O)(=O)c1cccc(C#N)c1` is > 10 µM (inactive); for `C/C=C/c1ccc([C@H]2[C@@H](CO)N[C@@H]2CNC(=O)C2CC2)cc1` it is > 10 µM (inactive). The figure for `O=C(C1CCCCC1)N1[C@@H]2CNc3ccccc3[C@@H]2[C@@H]1CO` is > 10 µM (inactive); for `O=C(Nc1ccc(F)cc1)N1[C@H](CO)[C@@H]2c3ccccc3NC[C@@H]21` it is > 10 µM (inactive); for `C[C@@H]1CN([C@@H](C)CO)C(=O)CCCn2nncc2CO[C@@H]1CN(C)Cc1ccccc1C(=O)O` it is > 10 µM (inactive). For the compound `C[C@@H]1CN([C@H](C)CO)C(=O)CCCn2nncc2CO[C@H]1CN(C)CC1CCCCC1`, the AC50 was > 10 µM (inactive).

On to `C[C@@H]1CN([C@H](C)CO)C(=O)CCCn2cc(nn2)CO[C@H]1CN(C)C(=O)Nc1cccc(C(F)(F)F)c1`, for which the AC50 was > 10 µM (inactive). As to `CCCNC(=O)N1C[C@H]2[C@@H](c3ccccc31)[C@@H](CO)N2C(=O)Nc1ccccc1F`, the AC50 is > 10 µM (inactive). Then `O=C(Cc1ccccn1)N1[C@@H](CO)[C@@H]2c3ccccc3NC[C@@H]21`, with > 10 µM (inactive); and `C[C@H]1CN([C@@H](C)CO)C(=O)CCCn2cc(nn2)CO[C@@H]1CN(C)C(=O)NC1CCCCC1`, with > 10 µM (inactive); and `CC(=O)N1C[C@@H]2[C@H](c3ccccc31)[C@H](CO)N2Cc1ccc(Cl)cc1`, with > 10 µM (inactive).

For `C[C@H](CO)N1C[C@H](C)[C@H](CN(C)Cc2ccccc2C(=O)O)OCc2cnnn2CCCC1=O`, the AC50 was > 10 µM (inactive). Regarding `Cc1noc(C)c1S(=O)(=O)N(C)C[C@@H]1OCc2cn(nn2)CCCC(=O)N([C@H](C)CO)C[C@H]1C`, the AC50 was > 10 µM (inactive). Take `COCC(=O)NC[C@@H]1[C@@H](c2ccccc2)[C@H](CO)N1C(=O)c1ccccc1`: the AC50 was > 10 µM (inactive). For the compound `C[C@@H]1CN([C@@H](C)CO)C(=O)CCCn2cc(nn2)CO[C@H]1CN(C)C(=O)Nc1cccc2ccccc12`, the AC50 was > 10 µM (inactive). On to `O=C(CC(F)(F)F)N1C[C@H]2[C@@H](c3ccccc31)[C@@H](CO)N2CC1CCOCC1`, for which the AC50 was > 10 µM (inactive).

Take `COc1ccc(NC(=O)N(C)C[C@H]2OCc3cnnn3CCCC(=O)N([C@H](C)CO)C[C@H]2C)c(OC)c1`: the AC50 is > 10 µM (inactive). In the case of `COCC(=O)NC[C@H]1[C@H](c2ccccc2)[C@H](CO)N1C(=O)c1ccccc1`, the AC50 is > 10 µM (inactive). As for `COCC(=O)N1[C@H](CNC(=O)c2ccccn2)[C@@H](c2ccccc2)[C@@H]1CO`, the AC50 was > 10 µM (inactive). On to `O=C(C1CCC1)N1C[C@H]2[C@@H](c3ccccc31)[C@@H](CO)N2C(=O)Nc1cccc(F)c1`, for which the AC50 is > 10 µM (inactive). For the compound `C[C@@H]1CN([C@H](C)CO)C(=O)CCCn2nncc2CO[C@H]1CN(C)Cc1ccc2cccnc2c1`, the AC50 was > 10 µM (inactive). Consider `O=C(C1CCCCC1)N1[C@@H](CO)[C@@H]2c3ccccc3NC[C@@H]21`, for which the AC50 was > 10 µM (inactive). For `C/C=C/c1ccc([C@H]2[C@@H](CO)N(C(=O)C3CC3)[C@H]2CNC(=O)NC(C)C)cc1`, the AC50 is > 10 µM (inactive).

Consider `O=C(C1CCCCC1)N1[C@@H](CO)[C@@H]2c3ccccc3N(S(=O)(=O)c3ccccc3)C[C@@H]21`, for which the AC50 is > 10 µM (inactive). As for `C[C@@H]1CN([C@H](C)CO)C(=O)CCCn2cc(nn2)CO[C@@H]1CN(C)C(=O)Nc1ccc2c(c1)OCO2`, the AC50 was > 10 µM (inactive). As for `CC(C)N(C[C@@H]1[C@@H](c2ccccc2)[C@@H](CO)N1S(C)(=O)=O)C(=O)CN(C)C`, the AC50 was > 10 µM (inactive).

Regarding `C[C@@H]1CN([C@H](C)CO)C(=O)CCCn2cc(nn2)CO[C@H]1CN(C)C(=O)c1ccc(N2CCN(C)CC2)cc1`, the AC50 is > 10 µM (inactive). Take `C[C@H]1CN([C@@H](C)CO)C(=O)CCCn2nncc2CO[C@@H]1CN(C)C(=O)c1cc(-c2ccccc2)on1`: the AC50 was > 10 µM (inactive). On to `COc1ccccc1CN1[C@@H]2CN(C(=O)c3cccnc3)c3ccccc3[C@@H]2[C@@H]1CO`, for which the AC50 was > 10 µM (inactive). On to `CCNC[C@H]1[C@@H](c2ccccc2)[C@@H](CO)N1C(=O)Cc1ccccn1`, for which the AC50 is > 10 µM (inactive).

As to `CCC(=O)N1[C@@H](CO)[C@@H]2c3ccccc3N(S(=O)(=O)c3ccc(F)cc3)C[C@@H]21`, the AC50 was > 10 µM (inactive). With `C[C@H]1CN([C@@H](C)CO)C(=O)CCCn2cc(nn2)CO[C@@H]1CN(C)S(=O)(=O)c1ccc(-n2cccn2)cc1`, the AC50 is > 10 µM (inactive). In the case of `C[C@H](CO)N1C[C@H](C)[C@H](CN(C)S(=O)(=O)c2ccccc2C#N)OCc2cnnn2CCCC1=O`, the AC50 was > 10 µM (inactive). For `COc1ccccc1CN1[C@@H](CO)[C@@H]2c3ccccc3N(C(=O)c3cccnc3)C[C@@H]21`, the AC50 is > 10 µM (inactive). For the compound `CC(=O)N1[C@H](CO)[C@@H]2c3ccccc3N(S(=O)(=O)c3ccccc3C)C[C@@H]21`, the AC50 is > 10 µM (inactive).

For the compound `CCCNC(=O)N1[C@@H](CO)[C@@H]2c3ccccc3N(C(=O)Nc3cccc(Cl)c3)C[C@@H]21`, the AC50 is > 10 µM (inactive).

In the case of `OC[C@H]1[C@H]2c3ccccc3NC[C@H]2N1CC1CCOCC1`, the AC50 is > 10 µM (inactive).

Take `CCC(=O)N1[C@@H](CO)[C@@H]2c3ccccc3N(C(=O)c3cnccn3)C[C@@H]21`: the AC50 was > 10 µM (inactive). Consider `CCN(C[C@@H]1N[C@@H](CO)[C@@H]1c1ccccc1)C(=O)c1ccncc1`, for which the AC50 is > 10 µM (inactive).

Regarding `O=C(CN1CCOCC1)N1[C@H](CO)[C@H]2c3ccccc3NC[C@H]21`, the AC50 is > 10 µM (inactive). With `Cc1noc(C)c1NC(=O)N(C)C[C@@H]1OCc2cn(nn2)CCCC(=O)N([C@H](C)CO)C[C@H]1C`, the AC50 was > 10 µM (inactive). Regarding `O=C(NC[C@@H]1[C@@H](c2ccccc2)[C@H](CO)N1Cc1ccccn1)C1CCCC1`, the AC50 was > 10 µM (inactive). In the case of `C[C@H]1CN([C@@H](C)CO)C(=O)CCCn2nncc2CO[C@@H]1CN(C)C(=O)Nc1ccc2c(c1)OCCO2`, the AC50 was > 10 µM (inactive).
